# Assay results from patent US20200231638A1, “STABILIZED ANTI-MICROBIAL PEPTIDES” (priority 2015, published 2020).
# Bridge positions count the residues as written; N and C are the ends. Square brackets hold non-standard residues; d marks the D form. Peptide text beside a SMILES is read from it. R8 = C=CCCCCCC[C@@](C)(N)C(=O)O; S5 = C=CCCC[C@](C)(N)C(=O)O; Nle = CCCC[C@H](N)C(=O)O
# Tests used:
# B. cereus = assay type: cell-based, Bacillus cereus
# Protocol: (§1) Antimicrobial Activity Assay:
# (§2) The following microbroth dilution protocol was adapted to determine the minimum inhibitory concentration (MIC) of each peptide. First, Mueller-Hinton broth (MHB) was passed through an anion exchange column to remove polyanionic species and generate refined MHB. […] Briefly, bacterial cells was grown overnight in refined MHB at 37° C. and then diluted and allowed to grow again for several hours. Serial dilutions of peptide stocks in water (10 μl) were prepared using clear round-bottom polypropylene 96-well plates. Then 90 μl of bacteria in refined MHB was added to give a final inoculum of 5×10^5 CFU/ml. The plates were then covered with porous tape to reduce evaporation, and incubated for 20-24 hours at 37° C. The MIC is the minimum peptide concentration at which no visible growth was observed.
# human red blood cells = assay type: cell-based; conditions: red cells of human, 1 h, 25
# Protocol: FIG. 5 is a series of line graphs depicting the hemolytic activity of magainin II and stapled analogues. Peptides were incubated with 1% (v/v) human red blood cells in phosphate-buffered solution for 1 hour at 37° C. and then the supernatant was isolated and the amount of hemoglobin released was measured at 540 nm. % hemolysis was calculated relative to an untreated control.
# Hemolytic Activity Assay:
# For the determination of hemolytic activity, human blood samples were centrifuged to isolate red blood cells (RBCs), which are then washed and suspended in phosphate-buffered saline to yield a 1% (v/v) suspension. The suspension was then added to serial dilutions of peptide stocks in water in clear round-bottom polypropylene 96-well plates and the plates were incubated for 1 hour at 37° C. After incubation, the plates were centrifuged and the supernatant was isolated to determine the amount of hemoglobin released using a spectrophotometer (570 nm), according to the equation: % Hemolysis=(Treated Absorbance−Untreated Control Absorbance)/(1% Triton-X100 Treated Absorbance−Untreated Control Absorbance). The minimum hemolytic concentration (MHC) is the peptide concentration at which there is less than 1% hemoglobin release.
# P. aeruginosa = assay type: cell-based, Pseudomonas aeruginosa
# Protocol: as §1, §2
# E. coli = assay type: cell-based, Escherichia coli
# Protocol: as §1, §2
# S. aureus = assay type: cell-based, Staphylococcus aureus
# Protocol: as §1, §2
MIC B. cereus (B. cereus) [µg/mL],MIC P. aeruginosa (P. aeruginosa) [µg/mL],MIC E. coli (E. coli) [µg/mL],MIC S. aureus (S. aureus) [µg/mL],Compound,% Hemolysis at 25 μg/ml (human red blood cells) [%]
12.5,50,12.5,25,CCCC[C@H](NC(=O)[C@@H](NC(=O)[C@H](CCC(=O)O)NC(=O)CNC(=O)[C@@H](NC(=O)[C@H](Cc1ccccc1)NC(=O)[C@H](C)NC(=O)[C@H](CCCCN)NC(=O)CNC(=O)[C@H](Cc1ccccc1)NC(=O)[C@H](CCCCN)NC(=O)[C@]1(C)CCCC=CCCC[C@](C)(NC(=O)[C@H](Cc2ccccc2)NC(=O)[C@H](CCCCN)NC(=O)CNC(=O)[C@@H](NC(=O)CN)[C@@H](C)CC)C(=O)N[C@@H](Cc2c[nH]cn2)C(=O)N[C@@H](CO)C(=O)N[C@@H](C)C(=O)N1)C(C)C)[C@@H](C)CC)C(=O)N[C@@H](CC(N)=O)C(=O)N[C@@H](CO)C(N)=O [Mag(i + 4)5] (H-GIGKF[S5]HSA[S5]KFGKAFVGEI[Nle]NS-NH2; staple 6-10),13.3
6.2,3.1,1.6,6.2,CCCC[C@H](NC(=O)[C@]1(C)CCCC=CCCC[C@](C)(NC(=O)[C@H](C)NC(=O)[C@H](CCCCN)NC(=O)[C@@H](C)NC(=O)[C@H](Cc2ccccc2)NC(=O)[C@H](CCCCN)NC(=O)[C@H](CCCCN)NC(=O)[C@H](C)NC(=O)[C@H](CO)NC(=O)[C@H](Cc2c[nH]cn2)NC(=O)[C@H](CC(C)C)NC(=O)[C@H](Cc2ccccc2)NC(=O)[C@H](CCCCN)NC(=O)CNC(=O)[C@@H](NC(=O)CN)[C@@H](C)CC)C(=O)N[C@@H](C(C)C)C(=O)NCC(=O)N[C@@H](CCC(=O)O)C(=O)N1)C(=O)N[C@@H](CC(N)=O)C(=O)N[C@@H](CO)C(N)=O [Mag(i + 4)15(G13a)] (H-GIGKFLHSAKKF[dA]KA[S5]VGE[S5][Nle]NS-NH2; staple 16-20),4.3
>50,>50,25,>50,"CCCC[C@H](NC(=O)[C@]1(C)CCCC=CCCC[C@](C)(NC(=O)[C@H](C)NC(=O)[C@H](CCCCN)NC(=O)[C@H](CCC(=O)O)NC(=O)[C@H](Cc2ccccc2)NC(=O)[C@H](CCCCN)NC(=O)[C@H](CCCCN)NC(=O)[C@H](C)NC(=O)[C@H](CO)NC(=O)[C@H](Cc2c[nH]cn2)NC(=O)[C@H](CC(C)C)NC(=O)[C@H](Cc2ccccc2)NC(=O)[C@H](CCCCN)NC(=O)CNC(=O)[C@@H](NC(=O)CN)[C@@H](C)CC)C(=O)N[C@@H](C(C)C)C(=O)NCC(=O)N[C@@H](CCC(=O)O)C(=O)N1)C(=O)N[C@@H](CC(N)=O)C(=O)N[C@@H](CO)C(N)=O [Mag(i + 4)15(G13E), GIGKFLHSAKKFEKAXVGEXBNS] (H-GIGKFLHSAKKFEKA[S5]VGE[S5][Nle]NS-NH2; staple 16-20)",2.2
12.5,3.1,3.1,25,"CCCC[C@H](NC(=O)[C@]1(C)CCCC=CCCC[C@](C)(NC(=O)[C@H](C)NC(=O)[C@H](CCCCN)NC(=O)CNC(=O)[C@H](Cc2ccccc2)NC(=O)[C@H](CCCCN)NC(=O)[C@H](CCCCN)NC(=O)[C@H](CCCCN)NC(=O)[C@H](CO)NC(=O)[C@]2(C)CCCC=CCCC[C@](C)(NC(=O)[C@H](CCCCN)NC(=O)CN)C(=O)N[C@@H](CCCCN)C(=O)N[C@@H](Cc3ccccc3)C(=O)N[C@@H](CC(C)C)C(=O)N2)C(=O)N[C@@H](C(C)C)C(=O)N[C@@H](Cc2c[nH]cn2)C(=O)N[C@@H](CCC(=O)O)C(=O)N1)C(=O)N[C@@H](CC(N)=O)C(=O)N[C@@H](CO)C(N)=O [Mag(i + 4)2, 15(I2K, A9K, G18H)] (H-GK[S5]KFL[S5]SKKKFGKA[S5]VHE[S5][Nle]NS-NH2; staple 3-7, 16-20)",2.2

# Continued, compound first:
Compound,MIC B. cereus (B. cereus) [µg/mL],MIC P. aeruginosa (P. aeruginosa) [µg/mL],MIC E. coli (E. coli) [µg/mL],MIC S. aureus (S. aureus) [µg/mL],% Hemolysis at 25 μg/ml (human red blood cells) [%]
CCCC[C@H](NC(=O)[C@@H](NC(=O)[C@H](CCC(=O)O)NC(=O)CNC(=O)[C@@H](NC(=O)[C@H](Cc1ccccc1)NC(=O)[C@H](C)NC(=O)[C@H](CCCCN)NC(=O)[C@]1(C)CCCC=CCCCCCC[C@@](C)(NC(=O)[C@H](Cc2ccccc2)NC(=O)[C@H](CCCCN)NC(=O)CNC(=O)[C@@H](NC(=O)CN)[C@@H](C)CC)C(=O)N[C@@H](Cc2c[nH]cn2)C(=O)N[C@@H](CO)C(=O)N[C@@H](C)C(=O)N[C@@H](CCCCN)C(=O)N[C@@H](CCCCN)C(=O)N[C@@H](Cc2ccccc2)C(=O)N1)C(C)C)[C@@H](C)CC)C(=O)N[C@@H](CC(N)=O)C(=O)N[C@@H](CO)C(N)=O [Mag(i + 7)5] (H-GIGKF[R8]HSAKKF[S5]KAFVGEI[Nle]NS-NH2; staple 6-13 (inferred); N-terminus and C-terminus assumed),3.1,3.1,3.1,6.2,87.0
"CCCC[C@H](NC(=O)[C@]1(C)CCCC=CCCC[C@](C)(NC(=O)[C@H](C)NC(=O)[C@H](CCCCN)NC(=O)CNC(=O)[C@H](Cc2ccccc2)NC(=O)[C@H](CCCCN)NC(=O)[C@H](CCCCN)NC(=O)[C@H](C)NC(=O)[C@H](CO)NC(=O)[C@H](CCC(=O)O)NC(=O)[C@H](CC(C)C)NC(=O)[C@H](Cc2ccccc2)NC(=O)[C@H](CCCCN)NC(=O)CNC(=O)[C@@H](NC(=O)CN)[C@@H](C)CC)C(=O)N[C@@H](C(C)C)C(=O)NCC(=O)N[C@@H](CCC(=O)O)C(=O)N1)C(=O)N[C@@H](CC(N)=O)C(=O)N[C@@H](CO)C(N)=O [Mag(i + 4)15(H7E), GIGKFLESAKKFGKAXVGEXBNS] (H-GIGKFLESAKKFGKA[S5]VGE[S5][Nle]NS-NH2; staple 16-20)",6.2,12.5,3.1,25,2.9
CCCC[C@H](NC(=O)[C@@H](NC(=O)[C@]1(C)CCCC=CCCC[C@](C)(NC(=O)[C@H](CCCCN)NC(=O)CNC(=O)[C@H](Cc2ccccc2)NC(=O)[C@H](CCCCN)NC(=O)[C@H](CCCCN)NC(=O)[C@H](C)NC(=O)[C@H](CO)NC(=O)[C@H](Cc2c[nH]cn2)NC(=O)[C@H](CC(C)C)NC(=O)[C@H](Cc2ccccc2)NC(=O)[C@H](CCCCN)NC(=O)CNC(=O)[C@@H](NC(=O)CN)[C@@H](C)CC)C(=O)N[C@@H](Cc2ccccc2)C(=O)N[C@@H](C(C)C)C(=O)NCC(=O)N1)[C@@H](C)CC)C(=O)N[C@@H](CC(N)=O)C(=O)N[C@@H](CO)C(N)=O [Mag(i + 4)14] (H-GIGKFLHSAKKFGK[S5]FVG[S5]I[Nle]NS-NH2; staple 15-19),3.1,3.1,1.6,3.1,92.1
"CCCC[C@H](NC(=O)[C@]1(C)CCCC=CCCC[C@](C)(NC(=O)[C@H](C)NC(=O)[C@H](CCCCN)NC(=O)CNC(=O)[C@H](Cc2ccccc2)NC(=O)[C@H](CCCCN)NC(=O)[C@H](CCCCN)NC(=O)[C@H](C)NC(=O)[C@H](CO)NC(=O)[C@H](Cc2c[nH]cn2)NC(=O)[C@H](CC(C)C)NC(=O)[C@H](Cc2ccccc2)NC(=O)[C@H](CCCCN)NC(=O)CNC(=O)[C@@H](NC(=O)CN)[C@@H](C)CC)C(=O)N[C@@H](C(C)C)C(=O)NCC(=O)N[C@@H](CCC(=O)O)C(=O)N1)C(=O)N[C@@H](CCCCN)C(=O)N[C@@H](CO)C(N)=O [Mag(i + 4)15(N22K), GIGKFLHSAKKFGKAXVGEXBKS] (H-GIGKFLHSAKKFGKA[S5]VGE[S5][Nle]KS-NH2; staple 16-20)",3.1,3.1,1.6,12.5,12.0
"CCCC[C@H](NC(=O)[C@]1(C)CCCC=CCCC[C@](C)(NC(=O)[C@H](C)NC(=O)[C@H](CCCCN)NC(=O)CNC(=O)[C@H](Cc2ccccc2)NC(=O)[C@H](CCCCN)NC(=O)[C@H](CCCCN)NC(=O)[C@H](C)NC(=O)[C@H](Cc2c[nH]cn2)NC(=O)[C@H](Cc2c[nH]cn2)NC(=O)[C@H](CC(C)C)NC(=O)[C@H](Cc2ccccc2)NC(=O)[C@H](CCCCN)NC(=O)CNC(=O)[C@@H](NC(=O)CN)[C@@H](C)CC)C(=O)N[C@@H](C(C)C)C(=O)NCC(=O)N[C@@H](CCC(=O)O)C(=O)N1)C(=O)N[C@@H](CC(N)=O)C(=O)N[C@@H](CO)C(N)=O [Mag(i + 4)15(S8H), GIGKFLHHAKKFGKAXVGEXBNS] (H-GIGKFLHHAKKFGKA[S5]VGE[S5][Nle]NS-NH2; staple 16-20)",3.1,3.1,1.6,3.1,8.7
